Target: Dipeptidyl peptidase 1 (Homo sapiens, UniProt P53634)
Assay: Inhibition Assay: The following buffers were used: MES buffer: 25 mM MES, 50 mM NaCl, 5 mM DTT, adjusted to pH 6.0, containing 0.1% BSA; TAGZyme Buffer: 20 mM NaH2PO4, 150 mM NaCl adjusted to pH is 6.0 with HClAssay Conditions:The recombinant human DPPI was diluted in TAGZyme buffer to 1 U/ml (38.1 ug/ml, respectively), and then activated by mixing in a 1:2 ratio with a Cysteamine aqueous solution (2 mM) and incubating for 5 mM at room temperature.Five uL test compound (final concentration 0.1 nM to 100 uM) in aqua bidest (containing 4% DMSO, final DMSO concentration 1%) were mixed with 10 uL of DPPI in MES buffer (final concentration 0.0125 ng/uL) and incubated for 10 min. Then, 5 uL of substrate in MES buffer (final concentration 50 uM) were added. The microtiter plates were then incubated at room temperature for […] Then, the reaction was stopped by adding 10 uL of Gly-Phe-DMK in MES-buffer (final concentration 1 uM).

Sequence of Dipeptidyl peptidase 1 (P53634 25-134 limits assumed): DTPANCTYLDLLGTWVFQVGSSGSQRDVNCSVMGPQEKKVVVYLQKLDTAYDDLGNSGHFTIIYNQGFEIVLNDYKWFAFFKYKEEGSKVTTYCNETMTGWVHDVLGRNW
Sequence of Dipeptidyl peptidase 1 (P53634 231-394 limits assumed): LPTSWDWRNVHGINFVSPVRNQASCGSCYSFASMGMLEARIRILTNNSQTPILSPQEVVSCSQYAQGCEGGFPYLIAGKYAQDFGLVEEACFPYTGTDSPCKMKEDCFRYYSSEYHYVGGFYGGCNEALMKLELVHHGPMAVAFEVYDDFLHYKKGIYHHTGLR
Sequence of Dipeptidyl peptidase 1 (P53634 395-463 limits assumed): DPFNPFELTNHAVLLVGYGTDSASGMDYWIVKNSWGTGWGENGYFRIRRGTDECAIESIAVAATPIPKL

SMILES: CN1C(=O)Cc2ccc(-c3sc(CC(C#N)NC(=O)[C@H]4N[C@@H]5CC[C@H]4C5)c(F)c3Br)cc21 (stereo partly specified)
- Ki: 3.6 nM

Reference: ChEMBL document CHEMBL3638759, “Substituted 2-aza-bicyclo[2.2.1]heptane-3-carboxylic acid (cyano-methyl)-amides inhibitors of cathepsin C” (2014)
